Test results from patent US20260232668A1 (Kadmon Corporation, LLC, priority 2023, published 2026).
Entries after “also recorded” stand apart in the source; their conditions may differ. Read-outs that look alike come from different tables or passages of the source.

Assays:
[1] = system: B cells (CD20+) in human whole blood; assay: anti-CD79b-mediated B-cell activation in human whole blood (CD69 on CD20+ B cells, flow cytometry); format: cell-based; conditions: anti-CD79b stimulation
Protocol: Flow cytometric analyses were conducted using BD LSRFortessa™ Cell Analyzer (BD Biosciences) and the data analyzed by FlowJo (BD Biosciences). B-cell activation is determined by an increase in surface expression of activation marker CD69 on B cells (CD20+) following anti-CD79b stimulation. The experiment was conducted in duplicate.

[2] = system: sclerodermatous chronic GVHD model; assay: Example 2: mouse model of sclerodermatous chronic GVHD, single agents; format: in vivo
Protocol: Animals were not replaced during the course of the study. Mice were handled in accordance with standard conventional procedures. Animals were acclimatized for a minimum of 3 days prior to study commencement. […] The study was performed in animal rooms provided with filtered air at a temperature of 70±5° F. and 50% 20% relative humidity and an automatic timer for a light/dark cycle of 12 hours on and 12 hours off with no twilight.
On Day 0, a combination of bone marrow cells and splenocytes were transferred from donor LP/J mice to the recipients, as indicated in Table 2. […] The BM cells were isolated using standard flushing practices. […] All animals were monitored daily, and weight, survival, and disease progression were recorded following the scoring system described in Table 4.
On Day 20, animals were redistributed into groups so that the average scGVHD score was similar across all groups. Treatment was initiated on Day 21 and continued until Day 55. All dosing was performed BID to control for stress associated with oral gavage. […] On Days 33, 36, 39, 42, and 45, all animals were photographed under isoflurane anesthesia to assess disease severity.

[3] = system: murine model of sclerodermatous chronic graft-versus-host disease (GVHD); assay: Example 4: murine model of sclerodermatous chronic GVHD, ibrutinib and rilzabrutinib; format: in vivo, mouse; conditions: for animals that did not display progressive disease by Day 56 (standard GVHD scale): vehicle 9%; for lung sum and individual component histopathology scores vs vehicle: ibrutinib 12.5 and 25 mg/kg (Groups 4, 5), rilzabrutinib 20 and 40 mg/kg (Groups 6, 7), not statistically significant
Source text: Animals were acclimatized for at least three days prior to study commencement.
Sclerodermatous chronic GVHD was induced in C57Bl/6 (CD45.1) mice using a single acute dose of 8.5 Gy of TBI on Day −1. […] The BM cells were isolated using standard flushing practices. […] Additionally, following TBI on Day −1 and up to Day 8, all animals were given supplemental high calorie highly palatable food in a dish on the bottom of the cage. Following transfer on Day 0, and then again as needed, all animals were given 1 mL/animal/day of supplemental fluids (warmed ringers solution) via subcutaneous injection. An additional 1 mL fluid may have been given in the pm on an as needed basis.
Ibrutinib. Ibrutinib was formulated with vehicle (0.5% MC).
Animals were treated twice daily on Days 21-55.
Animals in Groups 4 and 5 were administered ibrutinib for the first/AM dose and vehicle for the last/PM dose each day of dosing.
The modified GVHD score for scGVHD was based on 5 criteria: percentage of weight change (0-4), posture (hunching) (0-3), activity (0-3), fur texture (0-4), and skin integrity (0-4) (maximum index=18). […] Animals that appeared to be in pain were administered buprenorphine BID, as needed.
Progression-free survival was defined as an increase in GVHD Score of […] in comparison to Day 21 GVHD Score (standard or modified).
Fixed lung and skin samples were embedded in paraffin, sectioned at 5 microns, and slides stained with hematoxylin and eosin (H&E). One slide per block was sectioned and stained with hematoxylin and eosin (H&E). All slides were evaluated and scored with light microscopy by a board-certified veterinary pathologist.
Parametric data (weight change) were evaluated using one-way ANOVA with Dunnett's multiple comparisons test to compare all groups to the vehicle control group. Non-parametric data (GVHD scores) were analyzed with Kruskal-Wallis with Dunn's post-hoc test. All statistical analyses were performed using GraphPad Prism 8.4.3 Software (La Jolla, CA). Statistical significance was achieved when p<0.05.
Skin and Lung Histopathology. […] One slide per block was sectioned and stained with H&E. All slides were evaluated and scored with light microscopy by a board-certified veterinary pathologist. […] Lung range: 0-10; skin range: 0-30.
Dermal Thickness Measurements. Using H&E-stained slides, the dermis was measured (μm) in five areas across the tissue, with a mean calculated for each sample. Measurements were performed from epidermal basement membrane to the most superficial border of dermal collagen with subcuticular adipose. These measurements were only performed in areas of non-tangentially sectioned tissue, free of histologic artifacts, and with an intact epidermis.
Statistical Analysis. Data are presented as mean±standard error of the mean (SEM). Semi-quantitative sum and component histopathology scores were analyzed (GraphPad Prism) by non-parametric ANOVA (Kruskal-Wallis H test) with Dunn's multiple comparison post-hoc tests; dermal measurements were analyzed by one-way ANOVA with post-hoc Tukey tests as appropriate. Significance was set at p<0.05 for all tests.

[4] = system: murine model of sclerodermatous chronic graft-versus-host disease (GVHD); conditions: for survival: PO Days 21-55: belumosudil 125 mg/kg Days 21-32 then 100 mg/kg, ibrutinib 20 mg/kg, rilzabrutinib 40 mg/kg BID, vehicle 91.7%
[5] = cited from earlier work
[6] = dose groups not distinguished in the legend

Question: Which IC50 ([1]; Homo sapiens, B-cell, dose-response 10 μM to 0.00017 μM, read-out: IC50 of inhibition of B-cell activation in whole blood) does the source give for `CC(C)(C=C(C#N)C(=O)N1CCC[C@@H](n2nc(-c3ccc(Oc4ccccc4)cc3F)c3c(N)ncnc32)C1)N1CCN(C2COC2)CC1` [rilzabrutinib, (R)-2-[3-[4-amino-3-(2-fluoro-4-phenoxy-phenyl)pyrazolo[3,4-d]pyrimidin-1-yl]piperidine-1-carbonyl]-4-methyl-4-[4-(oxetan-3-yl)piperazin-1-yl]pent-2-enenitrile] here?
Answer: Its IC50 is 9.5 nM.

Question: And the “disease severity (GVHD scores, total GVHD burden AUC)” value ([2]; rilzabrutinib 20 and 40 mg/kg BID PO, Days 21-55)?
Answer: Its value is “dose-dependent, with a greater reduction in disease severity observed at the higher 40 mg/kg dose”.

Question: What about the “body weight change (AUC Day 0-56) vs vehicle” value ([3]; 20 mg/kg BID (Group 6)) of the same compound?
Answer: Its value is “notably more weight gain”.

Question: And the “body weight change, death weight carried, vs vehicle” value ([3]; 20 mg/kg BID (Group 6))?
Answer: The value was “trend of increased weight gain”.

Question: And the “modified GVHD score (AUC) vs vehicle” value ([3]; 20 mg/kg BID (Group 6))?
Answer: Its value is “notably lower modified GVHD scores”.

Question: And the “modified GVHD score, death score carried: trend of lowered scores vs vehicle” value ([3]; 20 mg/kg BID (Group 6))?
Answer: Its value is “dampened after adjusting for survivor bias”.

Question: What about the “standard GVHD score (AUC) vs vehicle” value ([3]; 20 mg/kg BID (Group 6)) of the same compound?
Answer: The value was “notably lower standard GVHD scores”.

Question: And the “standard GVHD score, death score carried: trend of lowered scores vs vehicle” value ([3]; 20 mg/kg BID (Group 6))?
Answer: The value was “dampened after adjusting for survivor bias”.

Question: What about the “dermal thickness (H&E)” value ([3]; 20 mg/kg BID (Group 6), among-group p=0.3) of the same compound?
Answer: The value was “small reduction in mean thickness”.

Question: And the “animals that did not display progressive disease by Day 56 (standard GVHD scale)” value ([3]; 20 mg/kg BID (Group 6))?
Answer: The value was 30%.

Question: And the survival ([3]; 20 mg/kg BID PO, Days 21-55 (Group 6), vehicle 82%)?
Answer: The survival was 80%.

Question: What about the “modified GVHD score (AUC) vs vehicle” value ([3]; 40 mg/kg BID (Group 7)) of the same compound?
Answer: Its value is “notably lower modified GVHD scores”.

Question: And the “modified GVHD score, death score carried: trend of lowered scores vs vehicle” value ([3]; 40 mg/kg BID (Group 7))?
Answer: Its value is “dampened after adjusting for survivor bias”.

Question: What about the “standard GVHD score (AUC) vs vehicle” value ([3]; 40 mg/kg BID (Group 7)) of the same compound?
Answer: Its value is “notably lower standard GVHD scores”.

Question: What about the “standard GVHD score, death score carried: trend of lowered scores vs vehicle” value ([3]; 40 mg/kg BID (Group 7)) of the same compound?
Answer: Its value is “dampened after adjusting for survivor bias”.

Question: What about the “dermal fibrosis score vs vehicle” value ([3]; 40 mg/kg BID (Group 7), p=0.09) of the same compound?
Answer: Its value is “statistical trend toward lowered scores”.

Question: What about the “animals that did not display progressive disease by Day 56 (standard GVHD scale)” value ([3]; 40 mg/kg BID (Group 7)) of the same compound?
Answer: The value was 10%.

Question: What about the survival ([3]; 40 mg/kg BID PO, Days 21-55 (Group 7), vehicle 82%) of the same compound?
Answer: The survival was 90%.

Question: And the “dermal thickness (FIG. 11 legend)” value [3, 6]?
Answer: Its value is “slight reduction in dermal thickness”.

Question: What about the “skin sum histopathology score (FIG. 10A legend)” value [3, 6] of the same compound?
Answer: The value was “Slightly lowered sum scores”.

Question: What about the “skin sum histopathology score vs vehicle” value ([3]; either dose, 20 and 40 mg/kg BID (Groups 6 and 7)) of the same compound?
Answer: The value was “lowered sum scores”.

Question: And the “lung sum and individual component histopathology scores vs vehicle” value [3]?
Answer: The value was “Small reductions”.

Question: And the “lung sum and individual component histopathology scores vs vehicle” value ([3]; listed as rilzabrunitib)?
Answer: The value was “slight reductions in sum histopathology scores”.

Question: And the “standard GVHD score, death score carried, vs vehicle” value ([4]; Groups 4-8, rilzabrutinib 40 mg/kg BID (Group 6))?
Answer: Its value is “trend of lower standard GVHD scores”.

Question: And the survival [4]?
Answer: Its survival is “survived to the conclusion of the study”.

Question: With `C=CC(=O)N1CCC[C@@H](n2nc(-c3ccc(Oc4ccccc4)cc3)c3c(N)ncnc32)C1` [ibrutinib, 1-[(3R)-3-[4-amino-3-(4-phenoxyphenyl)-1H-pyrazolo[3,4-d]pyrimidin-1-yl]-1-piperidinyl]-2-propen-1-one, reference compound] as the compound, how does the GVHD scores ([2]; ibrutinib 25 mg/kg PO AM dose, Days 21-55, vs vehicle) read?
Answer: Its GVHD scores is “numerical reduction in GVHD scores”.

Question: What about the “body weight change (AUC Day 0-56) vs vehicle” value ([3]; 12.5 mg/kg (Group 4)) of the same compound?
Answer: Its value is “notably more weight gain”.

Question: And the “body weight change, death weight carried, vs vehicle” value ([3]; 12.5 mg/kg (Group 4))?
Answer: Its value is “trend of increased weight gain”.

Question: And the “animals that did not display progressive disease by Day 56 (standard GVHD scale)” value ([3]; 12.5 mg/kg (Group 4))?
Answer: Its value is 10%.

Question: And the survival ([3]; 12.5 mg/kg PO AM dose, Days 21-55 (Group 4), to Day 56)?
Answer: Its survival is “survived until the end of the study”.

Question: And the “modified GVHD score (AUC) vs vehicle” value ([3]; 25 mg/kg (Group 5))?
Answer: The value was “notably lower modified GVHD scores”.

Question: What about the “modified GVHD score, death score carried: trend of lowered scores vs vehicle” value ([3]; 25 mg/kg (Group 5)) of the same compound?
Answer: Its value is “dampened after adjusting for survivor bias”.

Question: And the “skin sum histopathology score vs vehicle” value ([3]; 25 mg/kg (Group 5))?
Answer: The value was “lowered sum scores”.

Question: What about the “standard GVHD score (AUC) vs vehicle” value ([3]; 25 mg/kg (Group 5)) of the same compound?
Answer: Its value is “notably lower standard GVHD scores”.

Question: And the “standard GVHD score, death score carried: trend of lowered scores vs vehicle” value ([3]; 25 mg/kg (Group 5))?
Answer: Its value is “dampened after adjusting for survivor bias”.

Question: What about the “dermal fibrosis score vs vehicle” value ([3]; 25 mg/kg (Group 5), p=0.02) of the same compound?
Answer: Its value is “statistically lowered dermal fibrosis scores”.

Question: And the “animals that did not display progressive disease by Day 56 (standard GVHD scale)” value ([3]; 25 mg/kg (Group 5))?
Answer: Its value is 40%.

Question: What about the survival ([3]; 25 mg/kg PO AM dose, Days 21-55 (Group 5), vehicle 82%) of the same compound?
Answer: The survival was 90%.

Question: And the “skin sum histopathology score (FIG. 10A legend)” value [3, 6]?
Answer: The value was “Slightly lowered sum scores”.

Question: And the “lung sum and individual component histopathology scores vs vehicle” value ([3]; listed as ibrunitib)?
Answer: The value was “Small reductions; also recorded: slight reductions in sum histopathology scores”.

Question: And the survival [4]?
Answer: Its survival is 90%.

Question: For `CC(C)NC(=O)COc1cccc(-c2nc(Nc3ccc4[nH]ncc4c3)c3ccccc3n2)c1` [belumosudil, 2-{3-[4-(1H-indazol-5-ylamino)-2-quinazolinyl]phenoxy}-N-(propan-2-yl) acetamide], which “activated B cells (CD69 positive)” value ([1]; 10 μM compound, whole blood, anti-CD79b alone 73.4%) is on record?
Answer: The value was 82.4%.

Question: And the “inhibition of B-cell activation in whole blood (dose-response graph)” value ([1]; 10 μM to 0.00017 μM)?
Answer: Its value is “did not inhibit”.

Question: And the survival [4]?
Answer: Its survival is 80%.

Question: And the belumosudil exposure ([5]; coadministration with proton pump inhibitors)?
Answer: The belumosudil exposure was “decreases belumosudil exposure”.

Question: And the belumosudil exposure ([5]; coadministration with strong CYP3A inducers)?
Answer: Its belumosudil exposure is “decreases belumosudil exposure”.
